Measurements from publication PMC7005675 (Molecular Cell, 2020).

Target: T1, RsiG (Streptomyces venezuelae, UniProt F2RFR7)
T1 sequence (F2RFR7 1-199): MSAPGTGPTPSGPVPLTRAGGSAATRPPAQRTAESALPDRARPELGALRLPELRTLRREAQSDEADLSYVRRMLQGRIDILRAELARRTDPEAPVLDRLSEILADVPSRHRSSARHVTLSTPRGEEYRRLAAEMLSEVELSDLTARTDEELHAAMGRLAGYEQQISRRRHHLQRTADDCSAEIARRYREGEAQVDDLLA
Assay: fluorescence polarization
Format: binding
Settings: labelled compound; 150 mM NaCl, 25 mM Tris-HCl pH 7.5, 25°C; 1 nM probe

Kd: 6.5 ± 1.5 µM
Substance: 2′-O-(6-[Fluoresceinyl]aminohexylcarbamoyl)-cyclic diguanosine monophosphate [2′-Fluo-AHC-c-di-GMP]
